Values quoted from earlier work in patent US20070298000A1, “High SPF transparent or translucent naturally derived, cytoprotective, UV radiation resistant compositions” (priority 2006, published 2007).

Columns and labels:
[1] = system: uterine wet weight, cell height, cell proliferation; details: cell proliferation assays

| Structure (SMILES) | effect on growth of cancer cells / activity in cells (cancer cells) | estrogenicity [1] |
| --- | --- | --- |
| Cc1ccc(C=C2C(=O)C3(C)CCC2C3(C)C)cc1 (stereo not drawn) [4-methyl-benzylidene camphor, 3-(4-methylbenxylidene) camphor] | made cancer cells grow more rapidly | highly estrogenic |
| COc1ccc(C(=O)c2ccccc2)c(O)c1 [benzophenone-s] | made cancer cells grow more rapidly | highly estrogenic |
| CC1CC(OC(=O)c2ccccc2O)CC(C)(C)C1 (stereo not drawn) [homosalate] | made cancer cells grow more rapidly | – |
| CCCCC(CC)COC(=O)c1ccc(N(C)C)cc1 (stereo not drawn) [octyl-dimethyl-PABA] | made cancer cells grow more rapidly | – |
